Measurements published in PubChem BioAssay AID1996.
In brackets after ≈: the same amount, converted by molar mass.

Details: buffer; pH 7.4; 200.0 µM

| Structure (SMILES) | solubility kinetic |
| --- | --- |
| CCN(CC(=O)N1CCCC1)S(=O)(=O)c1ccc(OC)cc1 | 44.7 µg/mL (≈ 137 µM) |
| COc1ccc(C(=O)NCc2ccc3[nH]c(C)cc3c2)cc1OC | 23.5 µg/mL (≈ 72.4 µM) |
| COc1cc(/C=N/NC(=O)CNC(=O)c2ccncc2)ccc1OC(C)=O | > 55.6 µg/mL |
| N#C/C(=C(/O)c1ccc(Cl)c([N+](=O)[O-])c1)c1nc2ccccc2[nH]1 | 0.6 µg/mL (≈ 1.76 µM) |
| Brc1ccc(CNc2ccc3ncccc3c2)cc1 | < 0.3 µg/mL |
| Cc1ccc(NC(=S)N2CCCC(c3nc4ccccc4[nH]3)C2)cc1 (stereo not given) | 2.3 µg/mL (≈ 6.56 µM) |
| Cc1ccsc1C(=O)N1CCN(C(=O)c2ccco2)CC1 | > 45.7 µg/mL |
| O=C(COC(=O)c1cccc(Br)c1)NCc1ccco1 | 19 µg/mL (≈ 56.2 µM) |
| COc1ccccc1C(=O)OC(C)CN1CCN(C)CC1.Cl (stereo not given) | > 49.3 µg/mL |
| Cc1ccc(S(=O)(=O)N2CCOCC2)cc1NC(=O)COC(=O)COc1ccccc1[N+](=O)[O-] | 72.2 µg/mL (≈ 146 µM) |
| O=C(NCCCc1nc2ccccc2[nH]1)c1cccs1 | 37.4 µg/mL (≈ 131 µM) |
| NC(=O)CN1C(=O)C(=O)N(Cc2cccc(Cl)c2)C1=O | > 44.4 µg/mL |
| CC(C(=O)N1CCN(c2ccccc2)CC1)c1ccc([N+](=O)[O-])cc1 (stereo not given) | 40.7 µg/mL (≈ 120 µM) |
| O=[N+]([O-])c1cccc(S(=O)(=O)NCCCn2ccnc2)c1 | > 46.5 µg/mL |
| CCOC(=O)c1sc(=S)n(Cc2ccccc2)c1C | 3.4 µg/mL (≈ 11.6 µM) |
| CNC(=O)c1ccc(CNC(=O)OCc2ccccc2)cc1 | > 44.8 µg/mL |
| O=S(=O)(Cc1ccccc1Cl)NCCc1ccc(F)cc1 | > 49.2 µg/mL |
| Cc1ccc(S(=O)(=O)N2CCC[C@H]2C(=O)OCC(=O)N2CCc3ccccc32)cc1 | 10.8 µg/mL (≈ 25.2 µM) |
| O=C(COC(=O)C1CC(=O)N(Cc2ccco2)C1)Nc1nc(-c2ccc(F)cc2)cs1 (stereo not given) | 16.9 µg/mL (≈ 38.1 µM) |
| O=C(O)Cn1c(=O)c(-c2ccccc2)nc2ccccc21 | > 42 µg/mL |

| Structure (SMILES) | solubility kinetic |
| --- | --- |
| O=[N+]([O-])c1c(Nc2ccc(Br)cc2)ccc2nonc12 | < 0.2 µg/mL |
| CCN(CC)CC#Cc1ccc(C)cc1.Cl | 17.1 µg/mL |
| O=C(c1ccc([N+](=O)[O-])cc1)N1CCN(C(=O)c2ccco2)CC1 | > 49.4 µg/mL |
| O=C(Nc1ccccc1F)c1ccc(-c2cccc([N+](=O)[O-])c2)o1 | 2 µg/mL (≈ 6.13 µM) |
| O=C(NS(=O)(=O)c1ccccc1[N+](=O)[O-])c1ccccc1 | > 45.9 µg/mL |
| COc1ccc(NC(=O)CCN2C(=O)c3ccccc3C2=O)c(OC)c1 | 21.8 µg/mL (≈ 61.5 µM) |
| N#Cc1c(Cl)nc2c(c1C#N)CCCC2 | > 32.6 µg/mL |
| COC(=O)Cn1c(C(O)c2ccccc2)nc2ccccc21 (stereo not given) | > 44.4 µg/mL |
| COc1ccc(Cl)cc1NC(=S)NCCN1CCOCC1 | > 49.5 µg/mL |
| c1ccc(-c2ccccc2OCCCCn2ccnc2)cc1 | 31.3 µg/mL (≈ 107 µM) |
| Cc1cccnc1NC1CCCCC1 | 8.1 µg/mL (≈ 42.6 µM) |
| CCCN1CCN(S(=O)(=O)c2ccc3c(c2)OCCO3)CC1 | > 49 µg/mL |
| O=C(COC(=O)c1cccc([N+](=O)[O-])c1)NC1CCCC1 | 32.3 µg/mL (≈ 111 µM) |
| Cc1ccc(CSCC(=O)NCc2cccs2)cc1 | 41.9 µg/mL (≈ 144 µM) |
| COc1cc(/C=C/C(=O)OCC(=O)Nc2cc(S(=O)(=O)N3CCCC3)ccc2Cl)cc(OC)c1OC | 4.3 µg/mL (≈ 7.98 µM) |
| CCOc1ncccc1C(=O)NC(C)CCc1ccccc1 (stereo not given) | 41 µg/mL (≈ 137 µM) |
| CC1CCN(C2=NC(=O)/C(=C/c3cccc(O)c3)S2)CC1 | 2.3 µg/mL (≈ 7.61 µM) |
| O=C(Nc1ccc(Cl)cc1)c1ccc(-c2ccccn2)s1 | < 0.3 µg/mL |
| O=C(NC1CCCCCC1)C(=S)NCc1ccccc1 | 1.6 µg/mL (≈ 5.51 µM) |
| CCOC(=O)Nc1cccc(OCC(=O)Nc2ccc3c(c2)CCC3)c1 | 5.2 µg/mL (≈ 14.7 µM) |

| Structure (SMILES) | solubility kinetic |
| --- | --- |
| CCOC(=O)CCCNC(=O)CCNC(=O)c1ccc(OCCC(C)C)cc1 | > 58.9 µg/mL |
| O=C(COc1ccccc1)N1CCN(C(=O)c2ccccc2F)CC1 | > 51.4 µg/mL |
| CC(C)(C)NC(=O)C(=O)NCc1ccccn1 | > 35.3 µg/mL |
| O=C(Nc1ccc(Cl)cn1)c1cccc2ccccc12 | 1.3 µg/mL (≈ 4.6 µM) |
| O=C1Nc2ccccc2C1c1ncc(C(F)(F)F)cc1Cl (stereo not given) | > 46.9 µg/mL |
| COc1ccc(S(=O)(=O)NC(C)C(=O)NC2CC2)cc1C (stereo not given) | > 46.9 µg/mL |
| CN(C)C(=O)c1cc(C(=O)c2ccccc2Br)c[nH]1 | 44.4 µg/mL (≈ 138 µM) |
| FC(F)(F)c1ccnc(NCc2ccc(Cl)cc2)n1 | 4.3 µg/mL (≈ 14.9 µM) |
| Cn1c(=O)c2c(ncn2CCC(=O)N/N=C/c2ccncc2)n(C)c1=O | > 53.3 µg/mL |
| COc1ccc(CNCc2ccncc2)cc1OC.Cl | > 44.2 µg/mL |
| Cn1c(=O)n(CC(N)=O)c(=O)c2c1nc1n2CCCN1Cc1ccccc1 | 30.8 µg/mL (≈ 83.6 µM) |
| O=C(Nc1ccccc1)Nc1ccc2ncoc2c1 | 27.5 µg/mL (≈ 109 µM) |
| CCC(C)NC(=O)COCc1cc(-c2ccc3c(c2)OCO3)on1 (stereo not given) | > 49.9 µg/mL |
| O=S1(=O)CCN(Cc2ccccc2C(F)(F)F)CC1 | > 44 µg/mL |
| CCN(C(=S)NC(=O)C1CCCC1)C1CCCCC1 | > 42.4 µg/mL |
| COc1cccc2[nH]c3ccccc3c(=O)c12 | > 33.8 µg/mL |
| OC1/C(=C/c2ccccc2F)N2CCC1CC2 (stereo not given) | > 35 µg/mL |
| CC(NC(=O)c1cccs1)c1ccccc1 (stereo not given) | > 34.7 µg/mL |
| Cc1ccc(S(C)(=O)=NC(=O)c2cc(C)on2)cc1 (stereo not given) | 41.5 µg/mL (≈ 149 µM) |
| O=C(CN1CCc2ccccc21)NC(=O)NC1CCCCC1 | 34.8 µg/mL (≈ 115 µM) |
